Assay results reported in ChEMBL document CHEMBL1201862, “PubChem BioAssay data set” (2004).
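Values below derive from 48-hour exposures of cells grown in 96-well plates, with endpoints linearly interpolated between the two concentrations bracketing the appropriate inhibition level. GI50 is the concentration that inhibits growth by half.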 The source made the active and inactive calls. Rule as the data show it: active = GI50 up to about 1.1 µM and inactive = higher.

How the values were obtained:
Experiment in all cases: DTP human tumour cell line panel, 48 h
[1] = tested on: MDA-N
[2] = tested on: SN12C
[3] = tested on: IGROV-1
[4] = tested on: HL-60
[5] = tested on: SK-OV-3
[6] = tested on: SF-268
[7] = tested on: PC-3
[8] = tested on: HOP-62
[9] = tested on: MDA-MB-435
[10] = tested on: K562
[11] = tested on: T47D
[12] = tested on: Malme-3M
[13] = tested on: HCT-116
[14] = tested on: M14
[15] = tested on: CAKI-1
[16] = tested on: MCF7
[17] = tested on: SNB-19
[18] = tested on: HCT-15
[19] = tested on: NCI-H23
[20] = tested on: KM12

| SMILES | GI50 [1] | GI50 [2] | GI50 [3] | GI50 [4] | GI50 [5] | GI50 [6] | GI50 [7] | GI50 [8] | GI50 [9] | GI50 [10] | GI50 [11] | GI50 [12] | GI50 [13] | GI50 [14] | GI50 [15] | GI50 [16] | GI50 [17] | GI50 [18] [µM] | GI50 [19] | GI50 [20] |
| --- | --- | --- | --- | --- | --- | --- | --- | --- | --- | --- | --- | --- | --- | --- | --- | --- | --- | --- | --- | --- |
| CP(=O)(O)C(N)c1ccccc1 (centres undefined) | > 100 µM (inactive) | > 100 µM (inactive) | > 100 µM (inactive) | > 100 µM (inactive) | > 100 µM (inactive) | > 100 µM (inactive) | > 100 µM (inactive) | > 100 µM (inactive) | > 100 µM (inactive) | > 100 µM (inactive) | > 100 µM (inactive) | > 100 µM (inactive) | > 100 µM (inactive) | > 100 µM (inactive) | > 100 µM (inactive) | > 100 µM (inactive) | > 100 µM (inactive) | > 100 | > 100 µM (inactive) | > 100 µM (inactive) |
| C/C(=N\n1c(Cc2ccccc2)n[nH]c1=O)c1ccccc1 | > 100 µM (inactive) | > 100 µM (inactive) | > 100 µM (inactive) | > 100 µM (inactive) |  | > 100 µM (inactive) | > 100 µM (inactive) |  | > 100 µM (inactive) | > 100 µM (inactive) | > 100 µM (inactive) | > 100 µM (inactive) | > 100 µM (inactive) | > 100 µM (inactive) | > 100 µM (inactive) | > 100 µM (inactive) | > 100 µM (inactive) | > 100 | > 100 µM (inactive) | > 100 µM (inactive) |
| C[C@]12CC[C@H](OC3OC(CO)C(O)C(O)C3O)C[C@H]1CC[C@@H]1[C@@H]2CC[C@]2(C)[C@@H](C3=CCOC3=O)CC[C@]12O (some centres undefined) [ACTODIGIN] | > 100 µM (inactive) | 20.1 µM (inactive) | 28.4 µM (inactive) | 4.51 µM (inactive) | > 50 µM (inactive) | 8.2 µM (inactive) | > 100 µM (inactive) | 0.787 µM (active) | > 100 µM (inactive) | 21.5 µM (inactive) | > 100 µM (inactive) | 2.09 µM (inactive) | 15.7 µM (inactive) | > 100 µM (inactive) |  | 10.4 µM (inactive) |  | 22.7 | 15.8 µM (inactive) | 19.2 µM (inactive) |
| C/C=C/C[C@@H](C)C(=O)C1C(=O)N[C@@H](C(C)C)C(=O)N(C)CC(=O)N(C)[C@@H](CC(C)C)C(=O)N[C@@H](C(C)C)C(=O)N(C)[C@@H](CC(C)C)C(=O)N[C@@H](C)C(=O)N[C@@H](C)C(=O)N(C)[C@@H](CC(C)C)C(=O)N(C)[C@@H](CC(C)C)C(=O)N(C)[C@@H](C(C)C)C(=O)N1C (some centres undefined) | 2.39 µM (inactive) | 5.58 µM (inactive) |  | 2.8 µM (inactive) | > 20.5 µM (inactive) | 7.89 µM (inactive) | 0.703 µM (active) | 6.47 µM (inactive) | 3.35 µM (inactive) | 4.45 µM (inactive) | 3.03 µM (inactive) |  | 3.03 µM (inactive) | 6.28 µM (inactive) | 12.8 µM (inactive) | 3.95 µM (inactive) | 14 µM (inactive) | 5.51 | 7.83 µM (inactive) | 3.67 µM (inactive) |
| COC(=O)CCC1(CCC(=O)OC)CCCCCCC(CCC(=O)OC)(CCC(=O)OC)C(=O)C1=O | > 100 µM (inactive) | > 100 µM (inactive) | > 100 µM (inactive) |  | > 100 µM (inactive) | > 100 µM (inactive) | 47.8 µM (inactive) | > 100 µM (inactive) | > 100 µM (inactive) | 23.6 µM (inactive) | 20.5 µM (inactive) | > 100 µM (inactive) | > 100 µM (inactive) | 74.1 µM (inactive) | > 100 µM (inactive) | > 100 µM (inactive) | > 100 µM (inactive) | > 100 | > 100 µM (inactive) | > 100 µM (inactive) |
| COc1ccc(N(c2ccc(C#N)cc2)c2ccc(C#N)cc2)cc1 | > 100 µM (inactive) | > 100 µM (inactive) | 23.7 µM (inactive) | 3.97 µM (inactive) | > 100 µM (inactive) | > 100 µM (inactive) | > 100 µM (inactive) | > 100 µM (inactive) | > 100 µM (inactive) |  | 4.57 µM (inactive) |  | 93.5 µM (inactive) | > 100 µM (inactive) | > 100 µM (inactive) | 26 µM (inactive) | > 100 µM (inactive) | 75.2 | 29.4 µM (inactive) | 8.43 µM (inactive) |
| CCCCOC(C)(C)/C=C/C(O)[C@](C)(O)[C@H]1[C@H](O)C[C@@]2(C)[C@@H]3CCc4c(cc(OC5OC(CO)C(O)C(O)C5O)c(O)c4C)C3(C)C(=O)C[C@]12C (some centres undefined) | > 100 µM (inactive) | > 100 µM (inactive) | > 100 µM (inactive) |  | > 100 µM (inactive) | > 100 µM (inactive) | > 100 µM (inactive) | > 100 µM (inactive) | > 100 µM (inactive) | > 100 µM (inactive) | > 100 µM (inactive) | > 100 µM (inactive) | > 100 µM (inactive) | > 100 µM (inactive) | > 100 µM (inactive) | > 100 µM (inactive) | > 100 µM (inactive) | > 100 | > 100 µM (inactive) | > 100 µM (inactive) |
| O=C(O)Cc1ccc(Nc2nc3ccccc3nc2C(=O)O)cc1 | > 100 µM (inactive) | > 100 µM (inactive) | > 100 µM (inactive) | > 100 µM (inactive) | > 100 µM (inactive) | > 100 µM (inactive) | > 100 µM (inactive) | > 100 µM (inactive) | > 100 µM (inactive) |  | > 100 µM (inactive) | > 100 µM (inactive) | > 100 µM (inactive) | > 100 µM (inactive) | > 100 µM (inactive) | > 100 µM (inactive) | > 100 µM (inactive) | > 100 | > 100 µM (inactive) | > 100 µM (inactive) |
| CCOC(=O)C1=[N+]([O-])OC2=C(O)CCCC21 (centres undefined) | > 100 µM (inactive) | > 100 µM (inactive) | > 100 µM (inactive) |  | > 100 µM (inactive) | > 100 µM (inactive) | > 100 µM (inactive) | > 100 µM (inactive) | > 100 µM (inactive) | > 100 µM (inactive) | > 100 µM (inactive) | > 100 µM (inactive) | > 100 µM (inactive) | > 100 µM (inactive) | > 100 µM (inactive) | > 100 µM (inactive) | > 100 µM (inactive) | > 100 | > 100 µM (inactive) | > 100 µM (inactive) |
| CC1(C)CC(=O)C(=CNc2nc(-c3ccccc3)cs2)C(=O)C1 | 30.1 µM (inactive) | 39.2 µM (inactive) | 26.6 µM (inactive) | 47.9 µM (inactive) | > 100 µM (inactive) |  | 38.6 µM (inactive) | 34.2 µM (inactive) | 24.9 µM (inactive) |  | 32.7 µM (inactive) |  | > 100 µM (inactive) | 41.1 µM (inactive) |  | 29.2 µM (inactive) | 71.4 µM (inactive) | 20.2 | 32.4 µM (inactive) | 32.1 µM (inactive) |
| C#C[C@]1(O)CC[C@H]2[C@@H]3CCC4=C/C(=N/OCCN(C)C)CC[C@]4(C)[C@H]3CC[C@@]21C | 11.1 µM (inactive) | 44.3 µM (inactive) | 50.7 µM (inactive) |  | 40.1 µM (inactive) | 49.5 µM (inactive) | 27.7 µM (inactive) | 29.9 µM (inactive) | 6.7 µM (inactive) | 6.82 µM (inactive) | > 100 µM (inactive) | 22.1 µM (inactive) | 25.6 µM (inactive) | 15 µM (inactive) | 78 µM (inactive) | 25.1 µM (inactive) | 27.9 µM (inactive) | 36.1 | 36.1 µM (inactive) | 52 µM (inactive) |
| CCCCC(=O)/C=c1/cc(C)[nH]c2cccc3cnn1c32 | > 100 µM (inactive) | > 100 µM (inactive) | > 100 µM (inactive) | > 100 µM (inactive) | > 100 µM (inactive) | > 100 µM (inactive) | 49.1 µM (inactive) | > 100 µM (inactive) | 64 µM (inactive) |  | 16 µM (inactive) | > 100 µM (inactive) | > 100 µM (inactive) | > 100 µM (inactive) | > 100 µM (inactive) | > 100 µM (inactive) | > 100 µM (inactive) | > 100 | > 100 µM (inactive) | > 100 µM (inactive) |
| O=C(/C=C/c1ccccc1)NNC(=O)c1c(Cl)c(Cl)c(Cl)c(Cl)c1-c1nc2ccccc2[nH]1 | 11.3 µM (inactive) | 21.6 µM (inactive) | 6.49 µM (inactive) | 20.3 µM (inactive) | 0.0453 µM (active) | 51.8 µM (inactive) | 32.5 µM (inactive) | 0.0442 µM (active) | 15.7 µM (inactive) | 25.2 µM (inactive) | 18.4 µM (inactive) | 26.5 µM (inactive) | 22.1 µM (inactive) | 25.8 µM (inactive) | 33.3 µM (inactive) | 24.2 µM (inactive) |  | 24 | 23.2 µM (inactive) |  |
| CC1OCC2OC(C)OC(C3C4=C(CC(C)(C)CC4=O)OC4=C3C(=O)CC(C)(C)C4)C2O1 (centres undefined) | > 100 µM (inactive) | > 100 µM (inactive) |  | > 100 µM (inactive) | > 100 µM (inactive) | > 100 µM (inactive) | > 100 µM (inactive) | > 100 µM (inactive) | > 100 µM (inactive) | > 100 µM (inactive) | > 100 µM (inactive) | > 100 µM (inactive) | > 100 µM (inactive) | > 100 µM (inactive) | > 100 µM (inactive) | > 100 µM (inactive) | > 100 µM (inactive) | > 100 | > 100 µM (inactive) | > 100 µM (inactive) |
